Results taken from publication PMC3921447, “Homologous and heterologous desensitization of guanylyl cyclase-B signaling in GH3 somatolactotropes” (Cell and Tissue Research, 2013).

Legend:
Assay type in all cases: cell-based
GC-B [1] = molecular target: T1, GC-B (Rattus norvegicus, UniProt P16067); assay: CNP time-course of total cGMP accumulation (rapid homologous desensitization) in GH3 cells; settings: 100 nM CNP, 1 mM IBMX, n = 3 in triplicate
T1 construct: rapid homologous desensitization of endogenous GC-B receptors in GH3 cells; endogenous in cells; host or cells: GH3 rat somatolactotrope cells
T1 sequence (P16067 17-1047): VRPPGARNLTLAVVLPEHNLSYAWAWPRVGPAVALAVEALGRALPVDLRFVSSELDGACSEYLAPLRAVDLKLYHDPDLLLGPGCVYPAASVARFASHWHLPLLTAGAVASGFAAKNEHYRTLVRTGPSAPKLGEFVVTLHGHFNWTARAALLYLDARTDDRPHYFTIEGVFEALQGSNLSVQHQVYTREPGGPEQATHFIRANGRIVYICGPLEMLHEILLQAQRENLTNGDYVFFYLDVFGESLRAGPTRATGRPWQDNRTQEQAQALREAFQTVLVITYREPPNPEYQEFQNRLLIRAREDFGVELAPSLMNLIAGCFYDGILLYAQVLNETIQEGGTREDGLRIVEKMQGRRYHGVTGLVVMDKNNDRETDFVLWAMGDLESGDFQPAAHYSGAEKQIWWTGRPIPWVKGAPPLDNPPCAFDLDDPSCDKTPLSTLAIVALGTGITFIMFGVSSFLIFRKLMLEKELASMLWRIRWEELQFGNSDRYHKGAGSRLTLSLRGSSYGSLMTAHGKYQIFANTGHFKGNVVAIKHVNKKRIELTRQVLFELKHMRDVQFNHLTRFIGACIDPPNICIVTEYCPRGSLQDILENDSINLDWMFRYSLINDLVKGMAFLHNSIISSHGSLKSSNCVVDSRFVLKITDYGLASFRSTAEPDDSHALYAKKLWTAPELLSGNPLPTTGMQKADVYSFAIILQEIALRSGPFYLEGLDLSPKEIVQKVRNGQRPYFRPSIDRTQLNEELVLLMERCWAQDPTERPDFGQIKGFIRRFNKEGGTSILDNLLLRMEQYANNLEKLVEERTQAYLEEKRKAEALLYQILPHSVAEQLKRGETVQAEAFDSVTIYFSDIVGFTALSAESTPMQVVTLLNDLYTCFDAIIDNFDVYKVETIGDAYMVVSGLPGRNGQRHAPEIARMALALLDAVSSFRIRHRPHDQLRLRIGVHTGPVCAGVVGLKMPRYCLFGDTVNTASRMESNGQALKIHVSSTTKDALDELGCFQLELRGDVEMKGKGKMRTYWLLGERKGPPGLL
Procedure: To characterize the activity of these receptors further , a series of experiments was performed to examine mechanisms of receptor desensitization. Total cGMP accumulation was measured to determine the changes in activity of the GC-A and GC-B receptors when treated over a short time-course with their native ligands, namely ANP and CNP, respectively. GH3 cells were plated at 3 × 10^5 cells/well in a 24-well plate, treated with 100 nM of either ANP or CNP in the presence of the phosphodiesterase inhibitor IBMX (1 mM) for 0 to 15 min and assayed for total cGMP concentration (Fig. 2a, b). […] In another experiment performed with 100 nM ANP instead of CNP, a rapid increase in cGMP accumulation (7.91 ± 0.9 to 164.31 ± 9.1pmol/ml per milligram protein) occurred between 0 and 5 min.
(§1) Fig. 2 Rapid homologous desensitization of CNP-dependent but not ANP-dependent cGMP accumulation in GH3 cells. Cells were treated with PSS containing either (a) 100 nM CNP or (b) 100 nM ANP for 0–15 min in the presence of 1 mM IBMX.

GC-B [2] = molecular target: T1, GC-B; assay: Effect of natriuretic peptide pre-treatment on CNP-stimulated (GC-B) cGMP accumulation in GH3 cells; settings: 100 nM CNP pre-treatment, then 100 nM CNP 15 min with IBMX; ns, P > 0.05; Fig. 3a
Procedure: Having established that GC-B signaling but not that of GC-A receptors, underwent rapid homologous desensitization, we next examined the effect of prolonged exposure of each receptor to its specific ligand. GH3 cells pre-treated with either ANP or CNP for 0 (control) to 6 h reduced the response to a subsequent 15-min treatment of ANP or CNP (with IBMX). […] The amount of cGMP measured from the 15-min pre-treatment sample was reduced by 39.6 ± 0.002 % (***P < 0.001). This effect was maintained up to the 6-h pre-treatment with CNP, which was reduced by 37.9 ± 7.1 % compared with the control (***P < 0.001).
Fig. 3 Effect of chronic exposure to CNP and ANP on GC-B- and GC-A-dependent cGMP accumulation in GH3 cells. Cells were initially treated with (a) 100 nM CNP or (b) 100 nM ANP in PSS without IBMX for 0 to 6 h. The medium was removed and replaced with 100 nM CNP (a) or 100 nM ANP (b) for 15 min in the presence of 1 mM IBMX. […]
In similar experiments designed to examine the effect of ANP pre-exposure to GC-A activity, a significant reduction in cGMP accumulation was observed within 30 min of ANP pre-treatment (by 28.9 ± 3.1 % compared with the control, *P < 0.05). […] In order to test the receptor specificity of the observed down-regulation of GC-B upon pre-treatment with CNP and of GC-A upon pre-treatment with ANP, the effects of ANP on GC-B and CNP on GC-A desensitization were determined. […]

GC-B [3] = molecular target: T1, GC-B; assay: Effect of protein phosphatase inhibitors on rapid homologous desensitization of CNP-stimulated cGMP accumulation in GH3 cells; settings: 100 nM CNP, 1 mM IBMX; 30 min pre-treatment with 100 nM OA, 1 nM cypermethrin or 1 mM Na3VO4; control = CNP alone; n = 3
Procedure: as §1
Similar short time-courses were performed, except that some cells were pre-treated with 100 nM okadaic acid (OA, a PP2A inhibitor), 1 nM cypermethrin (a PP2B inhibitor), or 1 mM sodium orthovanadate (Na3VO4, a protein tyrosine phosphatase inhibitor) for 30 min prior to CNP treatment (Fig. 2c).

CC[C@H](C)[C@@H]1NC(=O)[C@H](CCCNC(=N)N)NC(=O)[C@H](CC(=O)O)NC(=O)[C@H](CC(C)C)NC(=O)[C@H](CCCCN)NC(=O)[C@H](CC(C)C)NC(=O)CNC(=O)[C@H](Cc2ccccc2)NC(=O)[C@@H](NC(=O)CNC(=O)[C@H](CCCCN)NC(=O)[C@H](CO)NC(=O)[C@H](CC(C)C)NC(=O)CN)CSSC[C@@H](C(=O)O)NC(=O)CNC(=O)[C@H](CC(C)C)NC(=O)CNC(=O)[C@H](CO)NC(=O)[C@H](CCSC)NC(=O)[C@H](CO)NC(=O)CNC1=O [CNP, C-type natriuretic peptide]
total cGMP accumulation, 0 min (GC-B [1]; 0 min (start of time-course), mean ± SEM): 6.4 ± 0.7 pmol/ml per milligram protein | rate of cGMP accumulation between 5 to 15 min as % of the initial rate (0 to 5 min) (GC-B [1]; ***P < 0.001): 22.2 ± 3.9% | total cGMP accumulation, 5 min (GC-B [1]; 5 min, mean ± SEM): 82.7 ± 15.5 pmol/ml per milligram protein | total cGMP accumulation, 15 min (GC-B [1]; 15 min, mean ± SEM): 117.4 ± 17.6 pmol/ml per milligram protein | difference in reduction of cGMP between 15-min and 6-h pre-treatments (GC-B [2]): did not significantly differ between the 15-min to 6-h pre-treatments | rate of cGMP accumulation from 5 to 15 min (desensitization) (GC-B [3]): underwent desensitization as shown by the failure to maintain the initial rate of cGMP accumulation
